The values below are quoted from earlier work in US6699871B2, “Beta-amino heterocyclic dipeptidyl peptidase inhibitors for the treatment or prevention of diabetes” (Merck & Co., Inc., priority 2001, dated 2004).

Each structure is given as a SMILES string.

One series deals with hematopoiesis. The following applies: mouse, cyclophosphamide-induced neutropenia.
Another series addresses T1, DP-IV (Homo sapiens, UniProt P27487).
T1 construct: GRF is rapidly degraded in plasma to GRF[3-44]

T1 sequence (P27487 whole entry): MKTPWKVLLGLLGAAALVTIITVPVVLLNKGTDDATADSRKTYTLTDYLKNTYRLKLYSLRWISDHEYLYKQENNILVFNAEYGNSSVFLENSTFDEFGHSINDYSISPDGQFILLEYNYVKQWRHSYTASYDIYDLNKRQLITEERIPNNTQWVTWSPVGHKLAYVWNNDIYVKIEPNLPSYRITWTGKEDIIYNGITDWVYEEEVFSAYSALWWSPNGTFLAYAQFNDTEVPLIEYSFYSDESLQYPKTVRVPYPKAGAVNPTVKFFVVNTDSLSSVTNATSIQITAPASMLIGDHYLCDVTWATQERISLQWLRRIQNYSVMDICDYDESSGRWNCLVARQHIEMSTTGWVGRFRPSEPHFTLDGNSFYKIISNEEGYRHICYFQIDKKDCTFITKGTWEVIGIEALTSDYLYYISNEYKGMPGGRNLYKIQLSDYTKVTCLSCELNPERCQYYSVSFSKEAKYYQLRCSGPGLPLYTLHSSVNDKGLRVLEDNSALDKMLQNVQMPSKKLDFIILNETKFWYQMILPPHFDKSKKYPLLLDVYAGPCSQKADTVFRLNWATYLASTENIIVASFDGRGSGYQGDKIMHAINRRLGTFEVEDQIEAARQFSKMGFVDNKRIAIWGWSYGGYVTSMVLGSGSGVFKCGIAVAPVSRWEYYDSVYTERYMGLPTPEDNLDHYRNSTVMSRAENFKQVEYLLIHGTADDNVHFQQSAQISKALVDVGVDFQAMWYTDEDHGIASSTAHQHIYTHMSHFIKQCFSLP

Turning to `CC(C)[C@H](N)C(=O)N1CCC[C@H]1B(O)O` [Val-Boro-Pro], the effect on hematopoiesis result with hematopoiesis was “stimulated hematopoiesis”.

As to `CC[C@H](C)[C@H](N)C(=O)N1CCC[C@H]1C(=O)N[C@H](C(=O)O)[C@@H](C)CC` [diprotin A], the “degradation of GRF in plasma to GRF[3-44]” value on DP-IV is “prevented”.
